According to patent publication EP2982368A1, “Small molecule compounds displacing focal adhesion core components” (Universität Konstanz, priority 2014, dated 2016):
Entries after “also recorded” stand apart in the source; their conditions may differ.

Key:
[1] = tested on: GFP-FAK mouse embryonic fibroblasts; assay: MTT assay (cell viability); type: cell-based; conditions: 5 h compound exposure
Experimental: (§1) Image J was used to automatically quantify FAK-containing focal adhesions due to local maxima of fluorescence intensity in the GFP-channel (5 to 70 pixel). The number of cells was automatically counted in the Hoechst channel. To test reproducibility of the system 40 control wells were quantified wherein four positions for each well were imaged. […] GFP-FAK mouse embryonic fibroblasts were seeded on fibronectin and incubated for 1 h with the indicated concentrations of the small compounds, respectively. […] GFP-FAK mouse embryonic fibroblasts were seeded on fibronectin and serum-starved overnight. The indicated concentrations of Mb31 were applied for 30 min. Cells were lysed and analyzed for paxillin and FAK protein level as well as FAK Tyr397 phosphorylation. […] The purified kinase domain of FAK was incubated with increasing amounts of Mb31 for 1 h at 30°C together with poly-Glu-Tyr as a FAK substrate. […] Cell viability was assessed by MTT assay. […] Migration was recorded from cells that were cultured without serum (A), with serum (B) or with serum in the presence of 3 µM Mb31 (C). […] Mouse embryonic fibroblasts (MEFs) were transfected with talin-mCherry and talin dynamics analyzed in focal adhesions using fluorescence recovery after photobleaching (FRAP). […] (C) Wound closure was microscopically analyzed and evaluated using ImageJ software. […]

[2] = tested on: paxillin; assay: Paxillin displacement in GFP-FAK MEFs (antibody staining, live cell imaging of mKate-paxillin); type: cell-based, mouse; conditions: 10 µM
Experimental: The C-terminal focal adhesion targeting domain of FAK binds to paxillin and talin and is responsible for an efficient recruitment of FAK to focal adhesions. Therefore, it was further investigated whether Mb31 targets FAK directly or possibly in an indirect way by displacement of FAK binding proteins paxillin or talin, respectively. GFP-FAK MEFs were treated with 10 µM of Mb31 and analyzed for paxillin and talin localization via antibody staining. […] To analyze whether FAK and paxillin displacement occur with the same temporal pattern GFP-FAK MEFs were transiently transfected to express mKate-tagged paxillin and living cells were imaged after application of 10 µM of Mb31. Along with FAK, paxillin delocalized rapidly and within 10 min almost no paxillin and FAK remained at focal adhesions. Strikingly, in cells over-expressing paxillin higher Mb31 concentrations were necessary in order to achieve efficient FAK displacement. In non-transfected cells already 4 to 5 µM Mb31 were sufficient, whereas in cells with strong over-expression of paxillin even at 10 µM FAK and paxillin displacement was only partial. […] Still, vinculin localization was not altered in FAK-deficient MEFs treated with Mb31.
MEFs were seeded on fibronectin fragment (4 µg/ml in PBS) in multi-well plates (Greiner Bio-One) and incubated for 4 h to allow spreading. Cells were fixed and permeabilized with MeOH at -20°C after pre-fixation with 4% paraformaldehyde. Cells were blocked with 10% CS in PBS (blocking buffer) and incubated with primary antibodies (α-talin, α-paxillin or α-vinculin) in blocking buffer for 1 h at room temperature. Cells were washed three times with PBS and were incubated with appropriate fluorescently labeled secondary antibodies. Cells were washed again with PBS to remove excess antibodies and were imaged using a Leica AF6000LX fluorescence microscope. To analyze reversibility compound treated cells were washed three times with pre-warmed growth medium. After washout cells were incubated 1 h in presence of 10 µg/ml cycloheximide. […]

[3] = biological target: T1, paxillin (Mus musculus, UniProt Q8VI36); assay: Paxillin displacement in FAK-deficient MEFs (immunostaining, confocal microscopy); type: cell-based
T1 construct: endogenous in cells; host or cells: FAK-/- mouse embryonic fibroblasts

[4] = tested on: talin; assay: Talin-mCherry fluorescence recovery after photobleaching (FRAP); type: cell-based, mouse; conditions: 10 µM
Experimental: as §1

T1 sequence (Q8VI36 whole entry): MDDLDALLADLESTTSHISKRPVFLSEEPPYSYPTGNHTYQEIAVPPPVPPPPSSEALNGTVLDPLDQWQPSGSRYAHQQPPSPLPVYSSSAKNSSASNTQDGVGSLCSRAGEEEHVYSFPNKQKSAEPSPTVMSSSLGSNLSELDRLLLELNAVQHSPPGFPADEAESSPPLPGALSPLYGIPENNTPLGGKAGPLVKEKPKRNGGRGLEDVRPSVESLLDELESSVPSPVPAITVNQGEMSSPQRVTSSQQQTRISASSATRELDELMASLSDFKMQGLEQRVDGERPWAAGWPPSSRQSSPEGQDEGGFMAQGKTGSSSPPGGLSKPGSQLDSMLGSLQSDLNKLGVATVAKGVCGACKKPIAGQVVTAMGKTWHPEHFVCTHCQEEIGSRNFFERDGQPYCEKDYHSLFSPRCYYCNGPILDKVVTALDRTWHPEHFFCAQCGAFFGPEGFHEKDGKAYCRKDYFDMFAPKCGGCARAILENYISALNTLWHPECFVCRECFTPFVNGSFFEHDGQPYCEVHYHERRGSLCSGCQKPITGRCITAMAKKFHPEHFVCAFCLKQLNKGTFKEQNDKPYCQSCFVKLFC

Nc1ccc(SC(C[N+](=O)[O-])c2ccc(Cl)cc2)cc1 (centres unmarked) [FootLocker 2, 4-{[1-(4-chlorophenyl)-2-nitroethyl]thio}aniline]
cell viability / toxicity [1]: do not impair cell viability

O=[N+]([O-])C=Cc1cc(Br)cs1 [FootLocker 1, 4-bromo-2-(2-nitrovinyl)thiophene]
FAK and paxillin displacement in cells with strong over-expression of paxillin [2]: only partial
paxillin localization ([2]; 30 min, antibody staining): displaced from focal adhesions
time until almost no paxillin and FAK remained at focal adhesions ([2]; living cells expressing mKate-tagged paxillin): ≤ 10 min
cell viability / toxicity ([1]; listed as Mb31): do not impair cell viability; also recorded: minor toxicity
paxillin displacement in FAK knockout MEFs ([3]; 30 min): efficiently displaced
concentration efficiently displacing paxillin ([3]; FAK-/- MEF cells, 30 min, 1, 10, or 20 µM): > 1 µM
talin-associated fluorescence recovery at bleached focal adhesions [4]: did not recover
